Columns and labels:
Assay type in all cases: in vivo
[1] = system: Thrips tabaci; assay: Thrips tabaci (onion thrips) sunflower leaf disc test; settings: foliar, 168 h, 200 ppm sprayed on sunflower leaf discs, mixed ages, mortality after 7 days
Method: Thrips tabaci (Onion Thrips): Sunflower leaf discs were placed on agar in a 24-well microtiter plate and sprayed with test solutions at an application rate of 200 ppm. After drying, the leaf discs were infested with a thrips population of mixed ages. After an incubation period of 7 days, samples were checked for mortality.

[2] = system: Spodoptera littoralis; assay: Spodoptera littoralis (Egyptian cotton leafworm) cotton leaf disc test; settings: foliar, 72 h, 200 ppm sprayed on cotton leaf discs, mortality, feeding behavior, growth regulation 3 days after treatment
Method: Spodoptera littoralis (Egyptian Cotton Leafworm): Cotton leaf discs were placed on agar in a 24-well microtiter plate and sprayed with test solutions at an application rate of 200 ppm. After drying, the leaf discs were infested with […]. The samples were checked for mortality, feeding behavior, and growth regulation 3 days after treatment (DAT).

[3] = system: Plutella xylostella; assay: Plutella xylostella (diamond back moth) artificial diet test; settings: 144 h, 200 ppm (concentration in well 18 ppm), L2 larvae, larval mortality and growth regulation after 6 days
Method: (§1) Plutella xylostella (Diamond Back Moth): 24-well microtiter plate (MTP) with artificial diet was treated with test solutions at an application rate of 200 ppm (concentration in well 18 ppm) by pipetting. After drying, the MTPs were infested with L2 larvae (7-12 per well). After an incubation period of 6 days, samples were checked for larval mortality and growth regulation.

[4] = system: Diabrotica balteata; assay: Diabrotica balteata (corn root worm) artificial diet test; settings: 120 h, 200 ppm (concentration in well 18 ppm), L2 larvae, larval mortality and growth regulation after 5 days
Method: as §1, with “Diabrotica balteata (Corn Root Worm): A” for “Plutella xylostella (Diamond Back Moth):”, “(6-10” for “(7-12”, “5” for “6”

[5] = system: Tetranychus urticae; assay: Tetranychus urticae (two-spotted spider mite) bean leaf disc test; settings: foliar, 192 h, 200 ppm sprayed on bean leaf discs, mixed ages, egg, larval and adult mortality 8 days later
From the text: Tetranychus urticae (Two-Spotted Spider Mite): Bean leaf discs on agar in 24-well microtiter plates were sprayed with test solutions at an application rate of 200 ppm. After drying, the leaf discs are infested with mite populations of mixed ages. 8 days later, discs are checked for egg mortality, larval mortality, and adult mortality.

[6] = system: Heliothis virescens; assay: Heliothis virescens (tobacco budworm) egg test on artificial diet; settings: 96 h, 200 ppm (concentration in well 18 ppm), eggs on artificial diet, egg mortality, larval mortality, growth regulation after 4 days
Method: Heliothis virescens (Tobacco Budworm): Eggs (0-24 h old) were placed in 24-well microtiter plate on artificial diet and treated with test solutions at an application rate of 200 ppm (concentration in well 18 ppm) by pipetting. After an incubation period of 4 days, samples were checked for egg mortality, larval mortality, and growth regulation.

Measured: pest or weed control at 200 ppm

Cc1cc(C2=NSC(c3cc(Cl)cc(Cl)c3)(C(F)(F)F)C2)ccc1C(=O)NC1CSC1 (stereo not drawn) [Compound A22, 4-[5-(3,5-Dichloro-phenyl)-5-trifluoromethyl-4,5-dihydro-isothiazol-3-yl]-2-methyl-N-thietan-3-yl-benzamide]
≥ 80%: all assays above

CSCCNC(=O)c1ccc(C2=NSC(c3cc(Cl)cc(Cl)c3)(C(F)(F)F)C2)cc1C (stereo not drawn) [Compound A26]
≥ 80%: all assays above

Cc1cc(C2=NSC(c3cc(Cl)cc(Cl)c3)(C(F)(F)F)C2)ccc1C(=O)NC1CCSC1 (stereo not drawn) [Compound A27]
≥ 80%: all assays above

Cc1cc(C2=NSC(c3cc(Cl)cc(Cl)c3)(C(F)(F)F)C2)ccc1C(=O)NCC1CSC1 (stereo not drawn) [Compound A28]
≥ 80%: all assays above

Cc1cc(C2=NSC(c3cc(Cl)cc(Cl)c3)(C(F)(F)F)C2)ccc1C(=O)NCC1CCS1 (stereo not drawn) [Compound A30]
≥ 80%: all assays above

Cc1cc(C2=NSC(c3cc(Cl)cc(Cl)c3)(C(F)(F)F)C2)ccc1C(=O)NCC1CCS1(=O)=O (stereo not drawn) [Compound A31]
≥ 80%: all assays above

Cc1cc(C2=NSC(c3cc(Cl)cc(Cl)c3)(C(F)(F)F)C2)ccc1C(=O)NCCF (stereo not drawn) [Compound A34]
≥ 80%: all assays above

C#CCNC(=O)c1ccc(C2=NSC(c3cc(Cl)cc(Cl)c3)(C(F)(F)F)C2)cc1C (stereo not drawn) [Compound A35]
≥ 80%: all assays above

CCCNC(=O)c1ccc(C2=NSC(c3cc(Cl)cc(Cl)c3)(C(F)(F)F)C2)cc1C (stereo not drawn) [Compound A36]
≥ 80%: all assays above

Cc1cc(C2=NSC(c3cc(Cl)cc(Cl)c3)(C(F)(F)F)C2)ccc1C(=O)Nc1ncccn1 (stereo not drawn) [Compound A38]
≥ 80%: all assays above

Cc1cc(C2=NSC(c3cc(Cl)cc(Cl)c3)(C(F)(F)F)C2)ccc1C(=O)NC(C)C (stereo not drawn) [Compound A39]
≥ 80%: all assays above

Cc1cc(C2=NSC(c3cc(Cl)cc(Cl)c3)(C(F)(F)F)C2)ccc1C(=O)NCC1CCC1 (stereo not drawn) [Compound A40]
≥ 80%: all assays above

Cc1cc(C2=NSC(c3cc(Cl)cc(Cl)c3)(C(F)(F)F)C2)ccc1C(=O)NCC(F)F (stereo not drawn) [Compound A42]
≥ 80%: all assays above

Cc1cc(C2=NSC(c3cc(Cl)cc(Cl)c3)(C(F)(F)F)C2)ccc1C(=O)Nc1cncnc1 (stereo not drawn) [Compound A48]
≥ 80%: all assays above

Cc1cc(C2=NSC(c3cc(Cl)cc(Cl)c3)(C(F)(F)F)C2)ccc1C(=O)NC1CCc2ccccc21 (stereo not drawn) [Compound A50]
≥ 80%: all assays above

COCCNC(=O)c1ccc(C2=NSC(c3cc(Cl)cc(Cl)c3)(C(F)(F)F)C2)cc1C (stereo not drawn) [Compound A51]
≥ 80%: all assays above

Cc1cc(C2=NSC(c3cc(Cl)cc(Cl)c3)(C(F)(F)F)C2)ccc1C(=O)NC1CC1 (stereo not drawn) [Compound A52]
≥ 80%: all assays above

Cc1cc(C2=NSC(c3cc(Cl)cc(Cl)c3)(C(F)(F)F)C2)ccc1C(=O)NCCC1OCCO1 (stereo not drawn) [Compound A54]
≥ 80%: all assays above

Cc1cc(C2=NSC(c3cc(Cl)cc(Cl)c3)(C(F)(F)F)C2)ccc1C(=O)Nc1ccccc1F (stereo not drawn) [Compound A60]
≥ 80%: all assays above

CNC(=O)c1ccc(C2=NSC(c3cc(Cl)cc(Cl)c3)(C(F)(F)F)C2)cc1C (stereo not drawn) [Compound A62]
≥ 80%: all assays above

C=CCNC(=O)c1ccc(C2=NSC(c3cc(Cl)cc(Cl)c3)(C(F)(F)F)C2)cc1C (stereo not drawn) [Compound A63]
≥ 80%: all assays above

CCN1OC[C@@H](NC(=O)c2ccc(C3=NS[C@@](c4cc(Cl)cc(Cl)c4)(C(F)(F)F)C3)cc2C)C1=O [Compound A78, 4-[(5S)-5-(3,5-dichlorophenyl)-5-(trifluoromethyl)-4H-isothiazol-3-yl]-N-[(4R)-2-ethyl-3-oxo-isoxazolidin-4-yl]-2-methyl-benzamide]
≥ 80%: all assays above

Cc1cc(C2=NS[C@@](c3cc(Cl)cc(Cl)c3)(C(F)(F)F)C2)ccc1C(=O)N[C@@H]1CON(CC(F)(F)F)C1=O [Compound A79, 4-[(5S)-5-(3,5-dichlorophenyl)-5-(trifluoromethyl)-4H-isothiazol-3-yl]-2-methyl-N-[(4R)-3-oxo-2-(2,2,2-trifluoroethyl)isoxazolidin-4-yl]benzamide]
≥ 80%: all assays above

Source: patent US9078444B2, “Isothiazoline derivatives as insecticidal compounds” (Syngenta Participations AG, priority 2011, dated 2015)
